These results are taken from patent publication US20120101110A1, “Diaza-spiro[5.5]undecanes” (priority 2010, published 2012).

Assay [1] has as its target T1, human orexin 1 receptors (Homo sapiens, UniProt O43613).
T1 sequence (O43613 1-425): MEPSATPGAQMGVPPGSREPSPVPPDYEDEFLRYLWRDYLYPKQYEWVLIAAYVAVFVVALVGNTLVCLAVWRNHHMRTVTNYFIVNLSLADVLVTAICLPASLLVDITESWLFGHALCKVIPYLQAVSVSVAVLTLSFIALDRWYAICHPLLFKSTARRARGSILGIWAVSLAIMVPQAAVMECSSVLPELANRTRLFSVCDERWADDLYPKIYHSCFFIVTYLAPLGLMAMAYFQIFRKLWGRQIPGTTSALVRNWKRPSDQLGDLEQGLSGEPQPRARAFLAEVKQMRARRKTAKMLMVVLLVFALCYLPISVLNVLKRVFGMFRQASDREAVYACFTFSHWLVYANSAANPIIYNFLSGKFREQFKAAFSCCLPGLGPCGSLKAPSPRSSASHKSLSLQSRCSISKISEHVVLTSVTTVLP
The assay can be described thus: Radioligand binding assay ([3H]-SB649868 competition), hOx1R. Conditions: competition with about 1 nM [3H]-SB649868; CHO or HEK cell membranes expressing human orexin 1 receptor. The procedure: (§1) The cell pellet was either stored at −80° C. or used directly. Before the experiments, cell membranes were re-suspended in binding assay buffer (10 mM HEPES, 0.5% (w/v) bovine serum albumin, pH 7.5) by homogenisation with a Polytron homogeniser at 50 Hz for 20 s. Cell membranes were also used as made available by commercial providers.
(§2) Bound radioactivity was measured, and data were analysed with the program XLFIT or Graphpad Prism. Protein concentration was determined according to the Bradford/BioRad Protein Assay Kit.
In competition experiments, cell homogenates (150 μl) were incubated in assay buffer (10 mM HEPES, pH 7.5, 0.5% (w/v) bovine serum albumin, 5 mM MgCl2, 1 mMCaCl2, and tween 0.05%) for 1 h at room temperature with about 1 nM of the radioligand [^3H]-SB649868, 66 Ci/mmole, 50 μl), and with various concentrations of compounds of the invention (50 μl) in triplicates; non-specific binding was determined in the presence of almorexant (10 μM). Reactions were terminated by vacuum filtration, 3 washes of ice cold wash buffer (Tris-HCl pH 7.4/10 mM, with NaCl 154 mM). Competition data is expressed in Table 2 as Kd [μM].

In assay [2] the target is T1, human orexin 1 receptors. The experiment in a line: Calcium accumulation in cells (FLIPR), hOx1R. Conditions: for inhibition at 10 µM: read-out: FLIPR hOx1R % inhibition value.
Description: Cells expressing human orexin 1 or human orexin 2 receptors, were seeded at 8,000 cells/well in 384 well black-walled clear bottom, poly-D-lysine coated plates. After 24 h, the medium was removed and cells were washed once with phosphate buffered saline and serum-deprived overnight in assay buffer (130 mM NaCl, 5.4 mM KCl, 1.8 mM CaCl2, 0.8 mM MgSO4, 0.9 mM NaH2PO4, 25 mM glucose, 20 mM HEPES, pH 7.4) containing bovine serum albumin (1% w/v).
On the day of the experiment, the cells seeded in black plates were treated with assay buffer containing the Ca^2+sensitive fluorescent dye Fluo-4-AM (2 μM), and probenecid (0.1 mM). After 1 h plates were washed twice with, and resuspended in, assay buffer containing probenecid (0.1 mM) using a multi plate washer. The plates were placed into a FLIPR II (Fluorometric Imaging Plate Reader, Molecular Devices, Sunnyvale, Calif., USA) and baseline fluorescence (fluorescence light units, FLU) was measured (5 measurements, 2 S each; laser excitation 488 nm at 0.6-1 W, CCD camera exposure 0.4 s) before addition of buffer alone (basal) or containing test compounds (either compound of formula I alone, agonist alone or agonist in the presence of various concentrations of compounds of formula I). Fluorescence measurements were then continued every 1 S for 120 S followed by every 4 S for 240 S.
Compounds of formula I were tested usually in a concentration range from 10^−9 M to 10^−5 M. In the second round, performed one hour later (to allow for equilibration), Orexin A was tested either in the absence (calibration curves, Orexin A agonist controls) or in the presence of compounds of formula I to determine antagonism.
Inhibition data is expressed in Table 2 as Ki [μM], converted by the Cheng and Prusoff correction (Ki=IC50/1+(L/EC50)), where IC50 is the 50% inhibition value determined in concentration response inhibition curves, EC50 is the half maximal activation concentration determined for orexin A in concentration response curves and L is the concentration of orexin A used in inhibition experiments performed in with a submaximal concentration of orexin A in the presence of up to 8 increasing concentrations of compound of formula I. Inhibition data is also expressed in Table 2 as % inhibition value measured at a concentration of 10 μM of selected compounds of formula I.
Assay [3] deals with T2, human orexin 2 receptors (Homo sapiens, UniProt O43614).
T2 sequence (O43614 1-444): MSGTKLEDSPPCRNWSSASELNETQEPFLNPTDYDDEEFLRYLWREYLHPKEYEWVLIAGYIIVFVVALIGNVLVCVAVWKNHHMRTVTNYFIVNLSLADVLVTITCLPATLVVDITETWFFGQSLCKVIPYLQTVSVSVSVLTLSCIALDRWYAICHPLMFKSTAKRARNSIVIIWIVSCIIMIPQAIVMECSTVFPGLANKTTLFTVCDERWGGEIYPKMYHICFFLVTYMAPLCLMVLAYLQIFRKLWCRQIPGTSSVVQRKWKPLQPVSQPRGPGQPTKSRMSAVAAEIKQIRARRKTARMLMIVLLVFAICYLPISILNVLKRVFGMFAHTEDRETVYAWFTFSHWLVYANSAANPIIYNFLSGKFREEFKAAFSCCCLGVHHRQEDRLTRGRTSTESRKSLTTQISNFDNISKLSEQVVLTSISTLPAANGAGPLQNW
The assay can be described thus: Radioligand binding assay ([3H]-SB649868 competition), hOx2R. As to conditions: competition with about 1 nM [3H]-SB649868; CHO or HEK cell membranes expressing human orexin 2 receptor; read-out: binding hOx2R Kd. The method, then:
as §1, §2
In competition experiments, cell homogenates (150 μl) were incubated in assay buffer (10 mM HEPES, pH 7.5, 0.5% (w/v) bovine serum albumin, 5 mM MgCl2, 1 mMCaCl2, and tween 0.05%) for 1 h at room temperature with about 1 nM of the radioligand [^3H]-SB649868, 66 Ci/mmole, 50 μl), and with various concentrations of compounds of the invention (50 μl) in triplicates; non-specific binding was determined in the presence of almorexant (10 μM).

Assay [4] addresses T2, human orexin 2 receptors. The experiment in a line: Calcium accumulation in cells (FLIPR), hOx2R. Conditions: cells expressing human orexin 2 receptor; inhibition of orexin A-induced calcium accumulation; Cheng and Prusoff correction. Type of assay: cell-based.

The Kd is a measure of binding affinity in units of concentration. In general, Ki refers to a measure of affinity in units of concentration, obtained from inhibition or displacement. In the case of `Cc1cnc(-c2cccc(CN3CCCC4(CCN(c5cccc(C#N)n5)CC4)C3=O)c2)o1` [Example 39, 6-(2-(3-(5-methyloxazol-2-yl)benzyl)-1-oxo-2,9-diazaspiro[5.5]undecan-9-yl)picolinonitrile], the Kd at human orexin 1 receptors [1] was 1440 nM; at human orexin 2 receptors [3], 367 nM. Moreover, the inhibition constant Ki is 533 nM on human orexin 1 receptors [2] and 29 nM at human orexin 2 receptors [4].
Taken in the same sequence, the figures for `Cc1cnc(-c2cccc(CN3CCCC4(CCN(c5cc(C#N)ccn5)CC4)C3=O)c2)o1` [Example 40, 2-(2-(3-(5-methyloxazol-2-yl)benzyl)-1-oxo-2,9-diazaspiro[5.5]undecan-9-yl)isonicotinonitrile] were 332 nM, 37 nM, 241 nM and 19 nM.
Take `Cc1cncc(N2CCC3(CCCC(=O)N3Cc3cccc4[nH]ccc34)CC2)n1` [Example 41, 1-((1H-indol-4-yl)methyl)-9-(6-methylpyrazin-2-yl)-1,9-diazaspiro[5.5]undecan-2-one]: the Kd on human orexin 1 receptors [1] was determined as 2820 nM; at human orexin 2 receptors [3], 85 nM. Further, the figures for the Ki at human orexin 1 receptors [2] and on human orexin 2 receptors [4] were 1640 nM and 15 nM, respectively.
As usually defined, the inhibition is the drop in the measured response relative to a control, in per cent. Turning to `Cc1ccnc(N2CCC3(CCCC(=O)N3Cc3cccc4[nH]ccc34)CC2)n1` [Example 42, 1-((1H-indol-4-yl)methyl)-9-(4-methylpyrimidin-2-yl)-1,9-diazaspiro[5.5]undecan-2-one], the Kd at human orexin 1 receptors [1] was 5230 nM; at human orexin 2 receptors [3], 140 nM. On human orexin 1 receptors [2], the inhibition at 10 µM stood at 34%. Further, the Ki on human orexin 2 receptors [4] was 26 nM.
In the case of `COc1cncc(N2CCC3(CCCC(=O)N3Cc3cccc4[nH]ccc34)CC2)n1` [Example 43, 1-((1H-indol-4-yl)methyl)-9-(6-methoxypyrazin-2-yl)-1,9-diazaspiro[5.5]undecan-2-one], the Kd on human orexin 1 receptors [1] came out at 1860 nM; on human orexin 2 receptors [3], 612 nM. The figures for the Ki at human orexin 1 receptors [2] and on human orexin 2 receptors [4] were 729 nM and 17 nM, respectively.
As to `O=C1CCCC2(CCN(c3cncc(Cl)n3)CC2)N1Cc1cccc2[nH]ccc12` [Example 44, 1-((1H-indol-4-yl)methyl)-9-(6-chloropyrazin-2-yl)-1,9-diazaspiro[5.5]undecan-2-one], the dissociation constant (Kd) turned out to be 5740 nM on human orexin 1 receptors [1] and 238 nM on human orexin 2 receptors [3]. Further, the Ki at human orexin 1 receptors [2] came to 1570 nM; on human orexin 2 receptors [4], 12 nM.
As for `Cc1cc(C)nc(N2CCC3(CCCN(Cc4n[nH]c5ccccc45)C3=O)CC2)n1` [Example 45, 2-((1H-indazol-3-yl)methyl)-9-(4,6-dimethylpyrimidin-2-yl)-2,9-diazaspiro[5.5]undecan-1-one], the figures for the Kd on human orexin 1 receptors [1] and on human orexin 2 receptors [3] were 1060 nM and 64 nM, respectively. Further, the Ki at human orexin 1 receptors [2] was 521 nM; at human orexin 2 receptors [4], 10 nM.
For the compound `O=C1N(Cc2c[nH]c3ccccc23)CCCC12CCN(c1nccc(Cl)n1)CC2` [Example 51, 2-((1H-indol-3-yl)methyl)-9-(4-chloropyrimidin-2-yl)-2,9-diazaspiro[5.5]undecan-1-one], the dissociation constant Kd at human orexin 1 receptors [1] worked out at 4820 nM; at human orexin 2 receptors [3] it was 700 nM. In addition, at human orexin 1 receptors [2], the inhibition at 10 µM was determined as 44%. On human orexin 2 receptors [4], the Ki stood at 84 nM.
As for `COc1cccc(N2CCC3(CCCN(Cc4c[nH]c5ccccc45)C3=O)CC2)n1` [Example 65, 2-((1H-indol-3-yl)methyl)-9-(6-methoxypyridin-2-yl)-2,9-diazaspiro[5.5]undecan-1-one], the values for the equilibrium dissociation constant (Kd) on human orexin 1 receptors [1] and at human orexin 2 receptors [3] were over 10000 nM and 588 nM, respectively. For the same compound, the Ki on human orexin 1 receptors [2] stood at 699 nM; at human orexin 2 receptors [4], 66 nM.
As for `Cc1ccnc(N2CCC3(CCCN(Cc4c[nH]c5ccccc45)C3=O)CC2)c1` [Example 67, 2-((1H-indol-3-yl)methyl)-9-(4-methylpyridin-2-yl)-2,9-diazaspiro[5.5]undecan-1-one], the Kd was 3590 nM at human orexin 1 receptors [1] and 315 nM at human orexin 2 receptors [3]. Also, the inhibition at 10 µM on human orexin 1 receptors [2] is under 10%. Further, at human orexin 2 receptors [4], the Ki was determined as 134 nM.
As to `Cc1cc(C)nc(N2CCC3(CCCN(Cc4cccc(-c5ncccn5)c4)C3=O)CC2)c1` [Example 74, 9-(4,6-dimethylpyridin-2-yl)-2-(3-(pyrimidin-2-yl)benzyl)-2,9-diazaspiro[5.5]undecan-1-one], the results for the Kd at human orexin 1 receptors [1] and at human orexin 2 receptors [3] were over 10000 nM and 338 nM, respectively. The figures for the Ki at human orexin 1 receptors [2] and on human orexin 2 receptors [4] were 2150 nM and 160 nM, respectively.
For `Cc1cc(C#N)nc(N2CCC3(CCCN(Cc4c[nH]c5ccccc45)C3=O)CC2)n1` [Example 75, 2-(2-((1H-indol-3-yl)methyl)-1-oxo-2,9-diazaspiro[5.5]undecan-9-yl)-6-methylpyrimidine-4-carbonitrile] the same measures were over 10000 nM, 466 nM, 1480 nM and 7.2 nM.
Taken in the same sequence, the figures for `Cc1cc(C#N)cc(N2CCC3(CCCN(Cc4c[nH]c5ccccc45)C3=O)CC2)n1` [Example 78, 2-(2-((1H-indol-3-yl)methyl)-1-oxo-2,9-diazaspiro[5.5]undecan-9-yl)-6-methylisonicotinonitrile] were 3420 nM, 216 nM, 481 nM and 3 nM.
Consider `N#Cc1ccnc(N2CCC3(CCCN(Cc4c[nH]c5ccccc45)C3=O)CC2)n1` [Example 80, 2-(2-((1H-indol-3-yl)methyl)-1-oxo-2,9-diazaspiro[5.5]undecan-9-yl)pyrimidine-4-carbonitrile], for which the dissociation constant Kd turned out to be 7760 nM on human orexin 1 receptors [1] and 1100 nM on human orexin 2 receptors [3]. For the same compound, the inhibition at 10 µM on human orexin 1 receptors [2] was 41%. Moreover, the Ki at human orexin 2 receptors [4] was 50 nM.
`Cc1cnc(N2CCC3(CCCN(Cc4c[nH]c5ccccc45)C3=O)CC2)nc1C` [Example 81, 2-((1H-indol-3-yl)methyl)-9-(4,5-dimethylpyrimidin-2-yl)-2,9-diazaspiro[5.5]undecan-1-one]: the figures for the dissociation constant Kd at human orexin 1 receptors [1] and on human orexin 2 receptors [3] were 798 nM and 29 nM, respectively. The figures for the inhibition constant (Ki) on human orexin 1 receptors [2] and at human orexin 2 receptors [4] were 2030 nM and 45 nM, respectively.
For `N#Cc1cccc(N2CCC3(CCCN(Cc4c[nH]c5ccccc45)C3=O)CC2)n1` [Example 83, 6-(2-((1H-indol-3-yl)methyl)-1-oxo-2,9-diazaspiro[5.5]undecan-9-yl)picolinonitrile] the same measures were over 10000 nM, 2110 nM, 1520 nM and 13 nM.
For `COc1cc(OC)nc(N2CCC3(CCCN(Cc4c[nH]c5ccccc45)C3=O)CC2)n1` [Example 88, 2-((1H-indol-3-yl)methyl)-9-(4,6-dimethoxypyrimidin-2-yl)-2,9-diazaspiro[5.5]undecan-1-one] the same measures were 5060 nM, 611 nM, 406 nM and 46 nM.
On to `N#Cc1ccnc(N2CCC3(CCCC(=O)N3Cc3cccc4[nH]ccc34)CC2)c1` [Example 91, 2-(1-((1H-indol-4-yl)methyl)-2-oxo-1,9-diazaspiro[5.5]undecan-9-yl)isonicotinonitrile], for which the figures for the equilibrium dissociation constant (Kd) at human orexin 1 receptors [1] and at human orexin 2 receptors [3] were over 10000 nM and 270 nM, respectively. Moreover, the inhibition at 10 µM at human orexin 1 receptors [2] came out at 26%. Besides, at human orexin 2 receptors [4], the Ki came out at 17 nM.
As to `N#Cc1cccc(N2CCC3(CCCC(=O)N3Cc3cccc4[nH]ccc34)CC2)n1` [Example 92, 6-(1-((1H-indol-4-yl)methyl)-2-oxo-1,9-diazaspiro[5.5]undecan-9-yl)picolinonitrile], the Kd on human orexin 1 receptors [1] is over 10000 nM; on human orexin 2 receptors [3], 1150 nM. Further, the Ki came to 2580 nM on human orexin 1 receptors [2] and 104 nM on human orexin 2 receptors [4].
